Test results taken from patent publication US20070185084A1, “COMPOSITIONS OF AN ANTICONVULSANT AND METHODS OF USING THE SAME FOR REVERSING WEIGHT GAIN” (Orexigen Therapeutics, Inc., priority 2006, published 2007).
Entries after “also recorded” stand apart in the source; their conditions may differ. Where two headings read alike, the source gives them in different places.

Columns and labels:
[1] = Example 11: zonisamide started one week after olanzapine pump implantation in rodent model of olanzapine-induced weight gain; type: in vivo, rats
Procedure: Female Sprague-Dawley rats, weighing about 235 grams at the start of the experiment were used. They were trained to sham injections, using the zonisamide vehicle for 2 weeks before the study commenced. Under isoflurane anesthesia, Alzet osmotic minipumps (2 ml2) were implanted subcutaneously, between the shoulder blades. The rats were subsequently returned to their home cages after recovery. The minipumps delivered 5 μL per hour for 14 days. Olanzapine was dissolved in 1.5% lactic acid in dH2O. Zonisamide was dissolved in 10% DMSO, 13.4% EtOH, 20.1% PPG, and […]. Olanzapine dose was 1.75 mg/day via the minipump. The animals were housed individually and supplied with standard laboratory chow. Food consumed and animal weights were recorded every days. There were 5 animals in the control (vehicle) group, 5 animals in the zonisamide only group, 4 animals in the olanzapine only group, and 6 animals in the olanzapine+zonisamide group.
Rats were allowed to recover after pump implantation, and then received twice daily injections of zonisamide 26 mg/kg. Their food intake and body weight were calculated daily for 15 days.
The protocol used was the same as described in Example 12, with the exception that the treatment with zonisamide began one week after implantation of the olanzapine osmotic pumps, and food intake and body weight were calculated daily for 10 days.

[2] = Example 10: co-treatment with zonisamide in rodent model of olanzapine-induced weight gain (body weight, food intake); type: in vivo, Sprague-Dawley rats
Procedure: Female Sprague-Dawley rats, weighing about 235 grams at the start of the experiment were used. They were trained to sham injections, using the zonisamide vehicle for 2 weeks before the study commenced. Under isoflurane anesthesia, Alzet osmotic minipumps (2 ml2) were implanted subcutaneously, between the shoulder blades. The rats were subsequently returned to their home cages after recovery. The minipumps delivered 5 μL per hour for 14 days. […] The animals were housed individually and supplied with standard laboratory chow. Food consumed and animal weights were recorded every days. […] Rats were allowed to recover after pump implantation, and then received twice daily injections of zonisamide 26 mg/kg.

[3] = Example 12 case study: zonisamide added to clonazepam, fluoxetine and lamotrogine, bipolar patient; type: in vivo, human; details: zonisamide 100 mg qD added to clonazepam, fluoxetine, lamotrogine; person
Procedure: A person having biopolar disorder, Type I, had been treated for just over year by their psychiatrist using clonazepam 1 mg qHS, fluoxetine 20 mg qd, and lamotrogine 300 mg qD. One particular complaint was that they had “constant thoughts of eating”. Their psychiatrist started them on zonisamide 100 mg qD. […] The dose was continued and despite multiple stressors at home, they continued to do well on the treatment regimen.

[4] = system: Proopiomelanocortin (POMC) neurons; assay: Electrophysiology: action current frequency of POMC neurons in brain slices, loose cell attached patch; type: cell-based, POMC-EGFP mice; details: for frequency of action currents (activity) of POMC neurons: zonisamide 10 μM, FIG. 1
Procedure: The electrophysiological activity of Proopiomelanocortin (POMC) neurons in brain slices from POMC-EGFP mice was recorded. The POMC neurons in these mice are identified by the expression of green fluorescent protein (EGFP) in these, and only these, cells. The frequency of action potentials in these neurons were recorded using standard electrophysiological techniques. In particular, loose cell attached patch configuration is used to determine action current frequency, whilst minimally disturbing the cells.
The basal activity was recorded, and then olanzapine (100 nM) was added to the tissue bath to determine the effect of olanzapine on the activity of POMC neurons. […] Then the effect of zonisamide on the reduction in activity caused by […] was tested by adding olanzapine plus zonisamide (10 μM) to the bath.

[5] = Example 14 case study: bupropion and zonisamide added to olanzapine and valproate; type: in vivo, human
Procedure: At this point, zonisamide was added to their medication regimen at 100 mg/day and the dose was increased to 200 mg/day after two weeks.

[6] = cited from earlier work
[7] = Example 13 case study: zonisamide in patient with weight gain on paroxetine and risperidone; type: in vivo, human
Procedure: They were therefore started on zonisamide 100 mg, increased to 200 mg. […] The dose was then increased to 300 mg and then to 600 mg.

[8] = Day 7.00, rats, zonisamide begun one week after olanzapine pump implantation
[9] = Day 1.00, rats, olanzapine 1.75 mg/day minipump, zonisamide 26 mg/kg twice daily
[10] = zonisamide added to olanzapine, valproate, bupropion

Cc1cc2c(s1)Nc1ccccc1N=C2N1CCN(C)CC1 [Olanzapine, olanzapine]
Cumulative Change in Body Weiglt Post-Pump Implant, Mean [1, 8]: −0.46 | Cumulative Change in Food Intake Post-Pump Implant, Mean [1, 8]: 13.39 | Cumulative Change in Body Weiglt Post-Pump Implant, Mean ([1]; Day 8.00): −11.55 | Cumulative Change in Food Intake Post-Pump Implant, Mean ([1]; Day 8.00): 18.36 | Cumulative Change in Body Weiglt Post-Pump Implant, Mean ([1]; Day 9.00): 4.28 | Cumulative Change in Food Intake Post-Pump Implant, Mean ([1]; Day 9.00): 57.46 | Cumulative Change in Body Weiglt Post-Pump Implant, Mean ([1]; Day 10.00): 11.88 | Cumulative Change in Food Intake Post-Pump Implant, Mean ([1]; Day 10.00): 124.58 | Cumulative Change in Body Weiglt Post-Pump Implant, Mean ([1]; Day 11.00): 13.48 | Cumulative Change in Food Intake Post-Pump Implant, Mean ([1]; Day 11.00): 145.5 | Cumulative Change in Body Weiglt Post-Pump Implant, Mean ([1]; Day 12.00): 11.8 | Cumulative Change in Food Intake Post-Pump Implant, Mean ([1]; Day 12.00): 163.6 | Cumulative Change in Body Weiglt Post-Pump Implant, Mean ([1]; Day 13.00): 15.55 | Cumulative Change in Food Intake Post-Pump Implant, Mean ([1]; Day 13.00): 181.05 | Cumulative Change in Body Weiglt Post-Pump Implant, Mean ([1]; Day 14.00): 20.4 | Cumulative Change in Food Intake Post-Pump Implant, Mean ([1]; Day 14.00): 200.9 | Cumulative Change in Body Weiglt Post-Pump Implant, Mean ([1]; Day 15.00): 17.98 | Cumulative Change in Food Intake Post-Pump Implant, Mean ([1]; Day 15.00): 218.2 | Cumulative Change in Body Weiglt Post-Pump Implant, Mean ([1]; Day 16.00): 21.22 | Cumulative Change in Food Intake Post-Pump Implant, Mean ([1]; Day 16.00): 236.95 | Change in Food Intake Post Pump Implant, Mean [2, 9]: 16.56 | Cumulative Change in Body Weight, Mean [2, 9]: 7.44 | Change in Food Intake Post Pump Implant, Mean ([2]; Day 2.00): 39.82 | Cumulative Change in Body Weight, Mean ([2]; Day 4.00): 21.04 | Change in Food Intake Post Pump Implant, Mean ([2]; Day 5.00): 62.30 | Cumulative Change in Body Weight, Mean ([2]; Day 5.00): 19.22 | Change in Food Intake Post Pump Implant, Mean ([2]; Day 6.00): 86.14 | Cumulative Change in Body Weight, Mean ([2]; Day 6.00): 20.56 | Change in Food Intake Post Pump Implant, Mean ([2]; Day 7.00): 105.74 | Cumulative Change in Body Weight, Mean ([2]; Day 7.00): 30.88 | Change in Food Intake Post Pump Implant, Mean ([2]; Day 8.00): 119.30 | Cumulative Change in Body Weight, Mean ([2]; Day 8.00): 27.56 | Change in Food Intake Post Pump Implant, Mean ([2]; Day 9.00): 144.98 | Cumulative Change in Body Weight, Mean ([2]; Day 9.00): 32.94 | Change in Food Intake Post Pump Implant, Mean ([2]; Day 10.00): 161.16 | Cumulative Change in Body Weight, Mean ([2]; Day 10.00): 34.98 | Change in Food Intake Post Pump Implant, Mean ([2]; Day 11.00): 180.96 | Cumulative Change in Body Weight, Mean ([2]; Day 11.00): 33.40 | Change in Food Intake Post Pump Implant, Mean ([2]; Day 12.00): 201.42 | Cumulative Change in Body Weight, Mean ([2]; Day 12.00): 40.76 | Change in Food Intake Post Pump Implant, Mean ([2]; Day 13.00): 224.38 | Cumulative Change in Body Weight, Mean ([2]; Day 13.00): 38.84 | Change in Food Intake Post Pump Implant, Mean ([2]; Day 14.00): 241.48 | Cumulative Change in Body Weight, Mean ([2]; Day 14.00): 43.28 | Cumulative Change in Body Weight, Mean ([2]; Day 15.00): 41.64

NS(=O)(=O)Cc1noc2ccccc12 [Zonisamide, zonisamide]
Cumulative Change in Body Weiglt Post-Pump Implant, Mean [1, 8]: −1.73 | Cumulative Change in Food Intake Post-Pump Implant, Mean [1, 8]: 13.15 | Cumulative Change in Body Weiglt Post-Pump Implant, Mean ([1]; Day 8.00): −11.38 | Cumulative Change in Food Intake Post-Pump Implant, Mean ([1]; Day 8.00): 18.62 | Cumulative Change in Body Weiglt Post-Pump Implant, Mean ([1]; Day 9.00): −1.28 | Cumulative Change in Food Intake Post-Pump Implant, Mean ([1]; Day 9.00): 46.87 | Cumulative Change in Body Weiglt Post-Pump Implant, Mean ([1]; Day 10.00): 5.8 | Cumulative Change in Food Intake Post-Pump Implant, Mean ([1]; Day 10.00): 101.08 | Cumulative Change in Body Weiglt Post-Pump Implant, Mean ([1]; Day 11.00): 6.37 | Cumulative Change in Food Intake Post-Pump Implant, Mean ([1]; Day 11.00): 116.93 | Cumulative Change in Body Weiglt Post-Pump Implant, Mean ([1]; Day 12.00): 0.86 | Cumulative Change in Food Intake Post-Pump Implant, Mean ([1]; Day 12.00): 126.64 | Cumulative Change in Body Weiglt Post-Pump Implant, Mean ([1]; Day 13.00): −4.79 | Cumulative Change in Food Intake Post-Pump Implant, Mean ([1]; Day 13.00): 133.95 | Cumulative Change in Body Weiglt Post-Pump Implant, Mean ([1]; Day 14.00): −11.79 | Cumulative Change in Food Intake Post-Pump Implant, Mean ([1]; Day 14.00): 141.09 | Cumulative Change in Body Weiglt Post-Pump Implant, Mean ([1]; Day 15.00): −10.3 | Cumulative Change in Food Intake Post-Pump Implant, Mean ([1]; Day 15.00): 153.61 | Cumulative Change in Body Weiglt Post-Pump Implant, Mean ([1]; Day 16.00): −9.37 | Cumulative Change in Food Intake Post-Pump Implant, Mean ([1]; Day 16.00): 167.93 | effect on olanzapine-induced weight gain ([1]; zonisamide one week after implantation of olanzapine pumps, rats): decrease the weight gain associated with olanzapine; also recorded: reversed olanzapine-induced weight gain | craving for food [3]: significantly reduced their craving for food | weight gain [3]: prevented weight gain | activity of POMC neurons inhibited by olanzapine ([4]; olanzapine plus zonisamide (10 μM) in the bath, FIG. 3): reversed the inhibition of POMC neurons | frequency of action currents (activity) of POMC neurons [4]: reversibly increased the activity of POMC neurons | frequency of action currents (activity) of POMC neurons ([4]; listed as zonisamide): increases the activity of POMC neurons | Change in Food Intake Post Pump Implant, Mean [2, 9]: 12.48 | Cumulative Change in Body Weight, Mean [2, 9]: 9.74 | Change in Food Intake Post Pump Implant, Mean ([2]; Day 2.00): 30.10 | Cumulative Change in Body Weight, Mean ([2]; Day 4.00): 20.24 | Change in Food Intake Post Pump Implant, Mean ([2]; Day 5.00): 46.02 | Cumulative Change in Body Weight, Mean ([2]; Day 5.00): 17.60 | Change in Food Intake Post Pump Implant, Mean ([2]; Day 6.00): 58.24 | Cumulative Change in Body Weight, Mean ([2]; Day 6.00): 19.34 | Change in Food Intake Post Pump Implant, Mean ([2]; Day 7.00): 72.10 | Cumulative Change in Body Weight, Mean ([2]; Day 7.00): 20.18 | Change in Food Intake Post Pump Implant, Mean ([2]; Day 8.00): 86.88 | Cumulative Change in Body Weight, Mean ([2]; Day 8.00): 17.32 | Change in Food Intake Post Pump Implant, Mean ([2]; Day 9.00): 104.86 | Cumulative Change in Body Weight, Mean ([2]; Day 9.00): 13.66 | Change in Food Intake Post Pump Implant, Mean ([2]; Day 10.00): 123.66 | Cumulative Change in Body Weight, Mean ([2]; Day 10.00): 14.62 | Change in Food Intake Post Pump Implant, Mean ([2]; Day 11.00): 140.40 | Cumulative Change in Body Weight, Mean ([2]; Day 11.00): 16.46 | Change in Food Intake Post Pump Implant, Mean ([2]; Day 12.00): 160.36 | Cumulative Change in Body Weight, Mean ([2]; Day 12.00): 21.08 | Change in Food Intake Post Pump Implant, Mean ([2]; Day 13.00): 177.70 | Cumulative Change in Body Weight, Mean ([2]; Day 13.00): 24.26 | Change in Food Intake Post Pump Implant, Mean ([2]; Day 14.00): 186.25 | Cumulative Change in Body Weight, Mean ([2]; Day 14.00): 27.52 | Cumulative Change in Body Weight, Mean ([2]; Day 15.00): 25.70 | effect on the weight gain associated with olanzapine ([2]; zonisamide added to concomitant olanzapine treatment, rats): decrease the weight gain associated with olanzapine | weight lost ([5]; zonisamide 100 mg/day, 200 mg/day after two weeks, added to regimen, over the next 4 months): 15 lbs | adverse effects reported [5, 10]: no adverse effects | bipolar disorder symptoms [5, 10]: remained free of bipolar disorder symptoms | weight loss ([6]; patients presenting with primary obesity): significant weight loss | tolerability ([6]; versus placebo treatment): well tolerated | psychiatric symptoms ([7]; on zonisamide): improved | weight lost ([7]; zonisamide 100 mg, increased to 200 mg, in 3 weeks): 12 pounds | weight ([7]; zonisamide increased to 300 mg and then 600 mg, in 5 months): returned to baseline

CC(NC(C)(C)C)C(=O)c1cccc(Cl)c1 (stereo not shown) [bupropion]
weight lost ([5]; bupropion 150 mg/day added to olanzapine and valproate, after 6 months): 23.6 lbs | adverse effect reported ([5]; bupropion dose raised to 300 mg/day): feeling hyperactive | weight regained ([5]; while continuing bupropion, over the next 10 months): 10.6 lbs | weight loss ([7]; trial of bupropion alone): did not cause significant weight loss
